In the supplement of paper PMC10307832:

What was measured:
Assay in all cases: relative viability (nuclei count vs DMSO), 5 days (fraction); higher = more cells survive
Zosuquidar + Linsitinib = compound: O[C@@H](COc1cccc2ncccc12)CN1CCN([C@@H]2c3ccccc3[C@@H]3[C@H](c4ccccc42)C3(F)F)CC1 [Zosuquidar] + C[C@]1(O)C[C@@H](c2nc(-c3ccc4ccc(-c5ccccc5)nc4c3)c3c(N)nccn32)C1 [Linsitinib] (partner 1 µM)
Summary of the method: (§1)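 For relative viability, nuclei counts in treated wells were divided by those in vehicle wells. Lung cancer cell lines had been pin-tool dosed in 1536-well plates the day after seeding and cultured for 5 days, then fixed and stained in one step (final 0.05% Triton X-100, 1% formaldehyde, 1 ug/ml Hoechst) and imaged at 4×. Doses were one drug alone or a fixed anchor-drug dose plus five library-drug doses (not always all listed) in √10 steps, and values are duplicate-plate medians.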

Zosuquidar + Decitabine = compound: O[C@@H](COc1cccc2ncccc12)CN1CCN([C@@H]2c3ccccc3[C@@H]3[C@H](c4ccccc42)C3(F)F)CC1 [Zosuquidar] + Nc1ncn([C@H]2C[C@H](O)[C@@H](CO)O2)c(=O)n1 [Decitabine] (partner 2 µM)
Summary of the method: as §1

Cabozantinib + OSI-027 = compound: COc1cc2nccc(Oc3ccc(NC(=O)C4(C(=O)Nc5ccc(F)cc5)CC4)cc3)c2cc1OC [Cabozantinib] + COc1cccc2cc(-c3nc([C@H]4CC[C@H](C(=O)O)CC4)n4ncnc(N)c34)[nH]c12 [OSI-027] (partner 0.5 µM)
Summary of the method: as §1

Kobe2602 + Tozasertib = compound: C1=CC(=CC=C1NC(=S)NNC2=C(C=C(C=C2[N+](=O)[O-])C(F)(F)F)[N+](=O)[O-])F [Kobe2602] + Cc1cc(Nc2cc(N3CCN(C)CC3)nc(Sc3ccc(NC(=O)C4CC4)cc3)n2)n[nH]1 [Tozasertib] (partner 0.1 µM)
Summary of the method: as §1

Cell Line	relative viability (Zosuquidar + Linsitinib; first compound 0.01 µM)	relative viability (Zosuquidar + Linsitinib; first compound 0.03162 µM)	relative viability (Zosuquidar + Linsitinib; first compound 0.1 µM)	relative viability (Zosuquidar + Linsitinib; first compound 1 µM)	relative viability (Zosuquidar + Decitabine; first compound 0.01 µM)	relative viability (Zosuquidar + Decitabine; first compound 0.03162 µM)	relative viability (Zosuquidar + Decitabine; first compound 0.1 µM)	relative viability (Zosuquidar + Decitabine; first compound 0.3162 µM)	relative viability (Zosuquidar + Decitabine; first compound 1 µM)	relative viability (Cabozantinib + OSI-027; first compound 0.02 µM)	relative viability (Cabozantinib + OSI-027; first compound 0.06325 µM)	relative viability (Cabozantinib + OSI-027; first compound 0.2 µM)	relative viability (Cabozantinib + OSI-027; first compound 0.6325 µM)	relative viability (Cabozantinib + OSI-027; first compound 2 µM)	relative viability (Kobe2602 + Tozasertib; first compound 0.2 µM)	relative viability (Kobe2602 + Tozasertib; first compound 0.6325 µM)	relative viability (Kobe2602 + Tozasertib; first compound 2 µM)	relative viability (Kobe2602 + Tozasertib; first compound 6.325 µM)	relative viability (Kobe2602 + Tozasertib; first compound 20 µM)	relative viability (Zosuquidar + Linsitinib; first compound 0.3162 µM)
NCI-H441	0.505	0.594	0.498	0.478	0.234	0.249	0.235	0.248	0.251	0.428	0.653	0.663	0.564	0.559	0.692	0.638	0.543	0.708	0.635	
A549	0.766	0.571	0.416	0.564	0.264	0.116		0.318	0.301											0.53
NCI-H2342					0.703	0.801	0.721	0.738	0.717	0.543	0.723	0.563	0.621	0.613	0.575	0.546	0.408	0.491	0.542	
NCI-H1623										0.392	0.483	0.38	0.414	0.436	0.42	0.433	0.396	0.439	0.412	
LCLC-97TM1	0.204	0.177		0.171	0.27	0.217		0.253	0.224	0.153	0.572	0.448	0.57	0.689	0.219	0.292	0.175	0.186	0.196	0.174
NCI-H2087	0.916	1.03	1.01	0.89	0.262	0.3	0.305	0.206	0.33	0.364	0.549	0.637	0.562	0.633	0.282	0.247	0.251	0.243	0.246	0.987
NCI-H647	1.16	1.19	1.3	1.24	0.396	0.444	0.429	0.378	0.318	0.589	0.633	0.641	0.636	0.548	0.213	0.315	0.181	0.192	0.347	1.28
Calu-6	0.905	0.906	0.901	0.948																1.12
LCLC-103H	1.13	1.17	1.05	1.03	0.803	0.724	0.787	0.739	0.772	0.344	0.561	0.487	0.509	0.394	0.498	0.535	0.469	0.436	0.479	0.912
NCI-H1650					0.451	0.439	0.553	0.398	0.378	0.597	0.724	0.438	0.622	0.484	0.409	0.337	0.319	0.24	0.271	
NCI-H522					0.681	0.624	0.643	0.618	0.657	0.585	0.79	0.7	0.766	0.767	0.68	0.644	0.552	0.592	0.568	
ChaGo-K-1					0.552	0.448	0.534	0.536	0.477	0.426	0.589	0.562	0.603	0.505	0.251	0.244	0.226	0.227	0.245	
NCI-H1648					0.427	0.612	0.434	0.455	0.489	0.255	0.256	0.278	0.281	0.266	0.465	0.43	0.468	0.513	0.393	
NCI-H1792	0.545	0.438	0.431	0.579	0.545	0.532	0.603	0.584	0.556		0.75	0.697	0.664	0.531						0.572
NCI-H1703	1.13	0.979	0.543	0.74																1.57
EBC-1	0.956	0.923	0.747	0.845																1.16
NCI-H1563	1.22	1.29	1.13	1.26						0.762	0.743	0.757	0.718	0.684						1.2
IA-LM	0.671	0.766	0.334	0.624																0.654
NCI-H2170					0.451	0.476	0.482	0.466	0.512	0.724	0.752	0.608	0.732	0.731	0.65	0.729	0.721	0.78	0.694	
